Reference: patent US10111435B2, “Herbicidal compositions containing N-(1,3,4-oxadiazol-2-yl)-aryl carboxylic acid amides” (BAYER CROPSCIENCE AKTIENGESELLSCHAFT, priority 2013, dated 2018)

Legend:
Type in all cases: in vivo
[1] = system: Avena fatua (AVEFA); assay: greenhouse post-emergence herbicidal efficacy against AVEFA
Description: (§1) All trials whose results are shown were conducted in a greenhouse by the methodology specified below. The effect of the inventive herbicidal compositions was examined on the following harmful plants 14 and 21 days after application:
(§2) Echinochloa crus-galli (ECHCG), Eleusine indica (ELEIN), Setaria viridis (SETVI), Amaranthus retroflexus (AMARE), Chenopodium album (CHEAL), Kochia scoparia (KCHSC), Solanum nigrum (SOLNI), Avena fatua (AVEFA), Bromus sterilis (BROST), Lolium multiflorum (LOLMU), Phalaris minor (PHAMI), Poa annua (POAAN), Galium aparine (GALAP), Matricaria inodora (MATIN) and Polygonum convolvulus (POLCO).
(§3) The harmful plant seeds were sown in pots (diameter 8 cm) with sandy loam soil and germinated under optimal conditions. The inventive herbicidal compositions or the active ingredients alone were applied post-emergence to the planted pots with a spray volume of 300 L/ha. The trial was conducted in a greenhouse under optimum growth conditions. The herbicidal effects were assessed visually by comparison of untreated and treated plants. The percentages mean: 0%=no effects, 100%=the plants die off completely).
(§4) The abbreviations mean: • a.i.=active ingredient • E^C=expected value according to Colby (E^C=A+B−A×B/100) • Diff: =difference (%) of measured value from expected value (%) (measured value minus expected value)
(§5) Assessment: • measured value E is greater than E^C:->synergism (+ diff.) • measured value E equals E^C:->additive effect • measured value E is smaller than E^C:->antagonism(− diff.)

[2] = system: Bromus sterilis (BROST); assay: greenhouse post-emergence herbicidal efficacy against BROST
Description: as §1, §2, §3, §4, §5

[3] = system: Lolium multiflorum (LOLMU); assay: greenhouse post-emergence herbicidal efficacy against LOLMU
Description: as §1, §2, §3, §4, §5

[4] = system: Phalaris minor (PHAMI); assay: greenhouse post-emergence herbicidal efficacy against PHAMI
Description: as §1, §2, §3, §4, §5

[5] = system: Poa annua (POAAN); assay: greenhouse post-emergence herbicidal efficacy against POAAN
Description: as §1, §2, §3, §4, §5

[6] = system: Galium aparine (GALAP); assay: greenhouse post-emergence herbicidal efficacy against GALAP
Description: as §1, §2, §3, §4, §5

[7] = system: Matricaria inodora (MATIN); assay: greenhouse post-emergence herbicidal efficacy against MATIN
Description: as §1, §2, §3, §4, §5

[8] = system: Polygonum convolvulus (POLCO); assay: greenhouse post-emergence herbicidal efficacy against POLCO
Description: as §1, §2, §3, §4, §5

[9] = 14 days after application, 25 g of a.i./ha
[10] = 14 days after application, 100 g of a.i./ha
[11] = 21 days after application, g of a.i./ha: A1-55 2.5, glufosinate-ammonium 100
[12] = 21 days after application, g of a.i./ha: A1-55 10, glufosinate-ammonium 100
[13] = 21 days after application, g of a.i./ha: A1-55 10, glufosinate-ammonium 25
[14] = 21 days after application, g of a.i./ha: A1-55 2.5, glufosinate-ammonium 25
[15] = 14 days after application, 80 g of a.i./ha
[16] = 14 days after application, 320 g of a.i./ha
[17] = 21 days after application, g of a.i./ha: A1-36 2.5, flurtamone 80
[18] = 21 days after application, g of a.i./ha: A1-36 2.5, flurtamone 320
[19] = 21 days after application, g of a.i./ha: A1-36 10, flurtamone 80
[20] = 21 days after application, g of a.i./ha: A1-36 10, flurtamone 320
[21] = 21 days after application, g of a.i./ha: A1-14 10, pyrasulfotole 100
[22] = 21 days after application, g of a.i./ha: A1-14 2.5, pyrasulfotole 25
[23] = 21 days after application, g of a.i./ha: A1-14 2.5, pyrasulfotole 100
[24] = 21 days after application, g of a.i./ha: A1-14 10, pyrasulfotole 25
[25] = 14 days after application, g of a.i./ha: A1-60 2.5, isoproturon 400
[26] = 14 days after application, g of a.i./ha: A1-60 10, isoproturon 400
[27] = 14 days after application, g of a.i./ha: A1-60 10, isoproturon 1600
[28] = 21 days after application, g of a.i./ha: A1-60 2.5, isoproturon 400
[29] = 21 days after application, g of a.i./ha: A1-60 10, isoproturon 400
[30] = 21 days after application, g of a.i./ha: A1-60 10, isoproturon 1600
[31] = 14 days after application, g of a.i./ha: A1-60 2.5, isoproturon 1600
[32] = 14 days after application, g of a.i./ha: A1-7 2.5, saflufenacil 2
[33] = 21 days after application, g of a.i./ha: A1-7 10, saflufenacil 8
[34] = 14 days after application, g of a.i./ha: A1-7 2.5, saflufenacil 8
[35] = 21 days after application, g of a.i./ha: A2-1 12.5, fluroxypyr 80
[36] = 21 days after application, g of a.i./ha: A2-1 50, fluroxypyr 80
[37] = 14 days after application, 20 g of a.i./ha
[38] = 21 days after application, g of a.i./ha: A2-1 12.5, fluroxypyr 20
[39] = 21 days after application, g of a.i./ha: A2-1 50, fluroxypyr 20
[40] = 21 days after application, g of a.i./ha: A1-13 2.5, indaziflam 40
[41] = 21 days after application, g of a.i./ha: A1-13 10, indaziflam 40
[42] = 21 days after application, g of a.i./ha: A1-13 10, indaziflam 10
[43] = 14 days after application, g of a.i./ha: A1-13 10, indaziflam 40
[44] = 14 days after application, g of a.i./ha: A1-13 2.5, indaziflam 10

CP(=O)(O)CCC(N)C(=O)O (stereo not drawn) [glufosinate-ammonium]
Efficacy [1, 9]: 0%
Efficacy [1, 10]: 25%
Efficacy [1, 11]: 20%
Efficacy [1, 12]: 20%
Efficacy [2, 10]: 15%
Efficacy [2, 11]: 15%
Efficacy [2, 13]: 0%
Efficacy [3, 9]: 0%
Efficacy [3, 10]: 25%
Efficacy [3, 11]: 15%
Efficacy [3, 12]: 15%
Efficacy [4, 9]: 0%
Efficacy [4, 10]: 15%
Efficacy [4, 14]: 0%
Efficacy [4, 11]: 10%
Efficacy [4, 13]: 0%
Efficacy [4, 12]: 10%
Efficacy [5, 10]: 0%
Efficacy [5, 11]: 5%
Efficacy [5, 12]: 5%
Efficacy [6, 9]: 0%
Efficacy [6, 13]: 0%
Efficacy [7, 9]: 0%
Efficacy [7, 10]: 30%
Efficacy [7, 14]: 0%
Efficacy [7, 11]: 15%
Efficacy [7, 13]: 0%
Efficacy [7, 12]: 15%
Efficacy [8, 9]: 0%
Efficacy [8, 10]: 25%
Efficacy [8, 13]: 0%
Efficacy [8, 12]: 5%

CNC1=C(c2cccc(C(F)(F)F)c2)C(=O)C(c2ccccc2)O1 (stereo not drawn) [flurtamone]
Efficacy [1, 15]: 0%
Efficacy [1, 16]: 15%
Efficacy [1, 17]: 0%
Efficacy [1, 18]: 0%
Efficacy [1, 19]: 0%
Efficacy [1, 20]: 0%
Efficacy [2, 15]: 0%
Efficacy [2, 16]: 10%
Efficacy [2, 17]: 0%
Efficacy [2, 18]: 10%
Efficacy [3, 15]: 30%
Efficacy [3, 19]: 20%
Efficacy [4, 15]: 40%
Efficacy [4, 16]: 50%
Efficacy [4, 19]: 40%
Efficacy [6, 15]: 40%
Efficacy [6, 16]: 80%
Efficacy [6, 17]: 0%
Efficacy [6, 19]: 0%
Efficacy [6, 20]: 70%
Efficacy [7, 15]: 50%
Efficacy [7, 16]: 50%
Efficacy [7, 17]: 25%
Efficacy [7, 18]: 30%
Efficacy [7, 19]: 25%
Efficacy [7, 20]: 30%
Efficacy [8, 15]: 50%
Efficacy [8, 16]: 30%
Efficacy [8, 19]: 0%
Efficacy [8, 20]: 30%

Cc1nn(C)c(O)c1C(=O)c1ccc(C(F)(F)F)cc1S(C)(=O)=O [pyrasulfotole]
Efficacy [2, 9]: 0%
Efficacy [2, 21]: 0%
Efficacy [3, 9]: 0%
Efficacy [3, 10]: 0%
Efficacy [4, 9]: 0%
Efficacy [4, 10]: 5%
Efficacy [4, 22]: 0%
Efficacy [4, 23]: 0%
Efficacy [5, 9]: 0%
Efficacy [5, 10]: 0%
Efficacy [5, 22]: 0%
Efficacy [5, 23]: 0%
Efficacy [6, 22]: 40%
Efficacy [6, 24]: 40%
Efficacy [7, 9]: 0%
Efficacy [7, 10]: 15%
Efficacy [7, 23]: 3%
Efficacy [8, 9]: 50%
Efficacy [8, 10]: 60%
Efficacy [8, 22]: 0%
Efficacy [8, 23]: 30%
Efficacy [8, 24]: 0%
Efficacy [8, 21]: 30%

CC(C)c1ccc(NC(=O)N(C)C)cc1 [isoproturon]
Efficacy [1, 25]: 0%
Efficacy [1, 26]: 0%
Efficacy [1, 27]: 35%
Efficacy [1, 28]: 0%
Efficacy [1, 29]: 0%
Efficacy [1, 30]: 15%
Efficacy [2, 25]: 0%
Efficacy [2, 31]: 5%
Efficacy [2, 26]: 0%
Efficacy [2, 27]: 5%
Efficacy [2, 29]: 0%
Efficacy [2, 30]: 0%
Efficacy [3, 25]: 0%
Efficacy [3, 31]: 15%
Efficacy [3, 26]: 0%
Efficacy [3, 27]: 15%
Efficacy [3, 29]: 0%
Efficacy [3, 30]: 0%
Efficacy [4, 25]: 35%
Efficacy [4, 26]: 35%
Efficacy [4, 27]: 80%
Efficacy [4, 28]: 15%
Efficacy [4, 29]: 15%
Efficacy [5, 31]: 80%
Efficacy [5, 26]: 60%
Efficacy [5, 27]: 80%
Efficacy [5, 29]: 30%
Efficacy [6, 25]: 10%
Efficacy [6, 31]: 20%
Efficacy [6, 26]: 10%
Efficacy [6, 27]: 20%
Efficacy [6, 28]: 0%
Efficacy ([6]; 21 days after application, g of a.i./ha: A1-60 2.5, isoproturon 1600): 0%
Efficacy [6, 29]: 0%
Efficacy [6, 30]: 0%
Efficacy [7, 28]: 90%
Efficacy [7, 29]: 90%

CC(C)N(C)S(=O)(=O)NC(=O)c1cc(-n2c(=O)cc(C(F)(F)F)n(C)c2=O)c(F)cc1Cl [saflufenacil]
Efficacy [1, 32]: 0%
Efficacy [2, 33]: 5%
Efficacy [3, 32]: 0%
Efficacy [3, 34]: 10%
Efficacy [8, 32]: 0%
Efficacy [8, 34]: 10%
Efficacy ([8]; 14 days after application, g of a.i./ha: A1-7 10, saflufenacil 2): 0%
Efficacy ([8]; 14 days after application, g of a.i./ha: A1-7 10, saflufenacil 8): 10%
Efficacy ([8]; 21 days after application, g of a.i./ha: A1-7 2.5, saflufenacil 2): 0%
Efficacy ([8]; 21 days after application, g of a.i./ha: A1-7 2.5, saflufenacil 8): 0%
Efficacy ([8]; 21 days after application, g of a.i./ha: A1-7 10, saflufenacil 2): 0%
Efficacy [8, 33]: 0%

Nc1c(Cl)c(F)nc(OCC(=O)O)c1Cl [fluroxypyr]
Efficacy [1, 15]: 0%
Efficacy [1, 35]: 0%
Efficacy [1, 36]: 0%
Efficacy [2, 15]: 0%
Efficacy [2, 36]: 0%
Efficacy [3, 15]: 0%
Efficacy [3, 36]: 0%
Efficacy [4, 15]: 15%
Efficacy [4, 35]: 0%
Efficacy [4, 36]: 0%
Efficacy [5, 37]: 0%
Efficacy [5, 38]: 0%
Efficacy [5, 35]: 10%
Efficacy [7, 38]: 20%
Efficacy [7, 35]: 50%
Efficacy [7, 39]: 20%
Efficacy [7, 36]: 50%
Efficacy [8, 37]: 70%
Efficacy [8, 38]: 80%
Efficacy [8, 39]: 80%

Cc1ccc2c(c1)[C@H](Nc1nc(N)nc(C(C)F)n1)[C@@H](C)C2 (stereo partly drawn) [indaziflam]
Efficacy [1, 40]: 10%
Efficacy [1, 41]: 10%
Efficacy [2, 42]: 0%
Efficacy [3, 42]: 0%
Efficacy ([4]; 14 days after application, g of a.i./ha: A1-13 2.5, indaziflam 40): 10%
Efficacy [4, 43]: 10%
Efficacy [4, 40]: 10%
Efficacy [4, 41]: 10%
Efficacy against POAAN ([5]; 21 days after application, dosage 10 g of a.i./ha): 0%
Efficacy [6, 44]: 50%
Efficacy [6, 43]: 60%
Efficacy against GALAP ([6]; 21 days after application, dosage 40 g of a.i./ha): 35%
Efficacy [7, 44]: 30%
Efficacy ([7]; 14 days after application, g of a.i./ha: A1-13 10, indaziflam 10): 30%
